Test results published in ChEMBL document CHEMBL4725372, “Rational Design of Suprastat: A Novel Selective Histone Deacetylase 6 Inhibitor with the Ability to Potentiate Immunotherapy in Melanoma Models” (J Med Chem, 2020).
Active and inactive are the calls of the source. The calls are words filed in the database; no cut-off is given here.

Assays:
[1] = Half life in rat liver microsome at 10 uM by LC-MS/MS analysis; assay type: ADME; details: liver microsomes
Mus musculus [2] = test: Immunomodulatory activity in C57BL/6 mouse harboring mouse SM1 cells assessed as effect on immunosuppressive T-regs at 25 mg/kg, ip dosed 5 days per week by flow cytometry; assay type: functional, organism-based; details: time 5.0 day/week
[3] = Protein binding in human plasma at 10 uM incubated for 1 hr by LC-MS/MS analysis; assay type: ADME, cell-free; details: read-out: PPB (converted)
Mus musculus [4] = test: Immunomodulatory activity in C57BL/6 mouse harboring mouse SM1 cells assessed as reduction in natural killer T cells at 25 mg/kg, ip dosed 5 days per week before by flow cytometry; assay type: functional, organism-based; details: time 5.0 day/week
Mus musculus [5] = test: Immunomodulatory activity in C57BL/6 mouse harboring mouse SM1 cells assessed as effect on number of F4/80+ CD80+ H2+ antitumor M1 macrophages at 25 mg/kg, ip dosed 5 days per week before starting 15 mg/kg, ip anti-PD1 immune checkpoint blockade therapy by flow cytometry; assay type: functional, organism-based; details: time 5.0 day/week
Mus musculus [6] = test: Immunomodulatory activity in C57BL/6 mouse harboring mouse SM1 cells assessed as increase in CD8+ effector T-cells and effector memory cells at 25 mg/kg, ip dosed 5 days per week before starting 15 mg/kg, ip anti-PD1 immune checkpoint blockade therapy by flow cytometry; assay type: functional, organism-based; details: time 5.0 day/week
Mus musculus [7] = test: Immunomodulatory activity in C57BL/6 mouse harboring mouse SM1 cells assessed as increase in natural killer cells at 25 mg/kg, ip dosed 5 days per week before by flow cytometry; assay type: functional, organism-based; details: time 5.0 day/week
Mus musculus [8] = test: Immunomodulatory activity in C57BL/6 mouse harboring mouse SM1 cells assessed as reduction in F4/80+ CD206+ pro-tumor M2 macrophages at 25 mg/kg, ip dosed 5 days per week before starting 15 mg/kg, ip anti-PD1 immune checkpoint blockade therapy by flow cytometry; assay type: functional, organism-based; details: time 5.0 day/week
HEK293 [9] = test: Selectivity index, ratio of IC50 for human HDAC8 expressed in HEK293/T17 cells (unknown origin) to human HDAC6 expressed in HEK293/T17 cells; assay type: cell-based
Mus musculus [10] = test: Immunomodulatory activity in C57BL/6 mouse harboring mouse SM1 cells assessed as effect on CD4+ T cells at 25 mg/kg, ip dosed 5 days per week by flow cytometry; assay type: functional, organism-based; details: time 5.0 day/week
Mus musculus [11] = test: Immunomodulatory activity in C57BL/6 mouse harboring mouse SM1 cells assessed as increase in CD8+ central memory cells at 25 mg/kg, ip dosed 5 days per week before starting 15 mg/kg, ip anti-PD1 immune checkpoint blockade therapy by flow cytometry; assay type: functional, organism-based; details: time 5.0 day/week
[12] = molecular target: T1, Protein deacetylase HDAC6 (Homo sapiens) (UniProt Q9UBN7); test: Inhibition of human HDAC6 in human WM164 cells assessed as decrease in STAT3 Y705 phosphorylation at 5 uM pre-incubated before IL6 stimulation for 20 mins by immunoblot analysis; assay type: cell-based
T1 sequence (whole entry): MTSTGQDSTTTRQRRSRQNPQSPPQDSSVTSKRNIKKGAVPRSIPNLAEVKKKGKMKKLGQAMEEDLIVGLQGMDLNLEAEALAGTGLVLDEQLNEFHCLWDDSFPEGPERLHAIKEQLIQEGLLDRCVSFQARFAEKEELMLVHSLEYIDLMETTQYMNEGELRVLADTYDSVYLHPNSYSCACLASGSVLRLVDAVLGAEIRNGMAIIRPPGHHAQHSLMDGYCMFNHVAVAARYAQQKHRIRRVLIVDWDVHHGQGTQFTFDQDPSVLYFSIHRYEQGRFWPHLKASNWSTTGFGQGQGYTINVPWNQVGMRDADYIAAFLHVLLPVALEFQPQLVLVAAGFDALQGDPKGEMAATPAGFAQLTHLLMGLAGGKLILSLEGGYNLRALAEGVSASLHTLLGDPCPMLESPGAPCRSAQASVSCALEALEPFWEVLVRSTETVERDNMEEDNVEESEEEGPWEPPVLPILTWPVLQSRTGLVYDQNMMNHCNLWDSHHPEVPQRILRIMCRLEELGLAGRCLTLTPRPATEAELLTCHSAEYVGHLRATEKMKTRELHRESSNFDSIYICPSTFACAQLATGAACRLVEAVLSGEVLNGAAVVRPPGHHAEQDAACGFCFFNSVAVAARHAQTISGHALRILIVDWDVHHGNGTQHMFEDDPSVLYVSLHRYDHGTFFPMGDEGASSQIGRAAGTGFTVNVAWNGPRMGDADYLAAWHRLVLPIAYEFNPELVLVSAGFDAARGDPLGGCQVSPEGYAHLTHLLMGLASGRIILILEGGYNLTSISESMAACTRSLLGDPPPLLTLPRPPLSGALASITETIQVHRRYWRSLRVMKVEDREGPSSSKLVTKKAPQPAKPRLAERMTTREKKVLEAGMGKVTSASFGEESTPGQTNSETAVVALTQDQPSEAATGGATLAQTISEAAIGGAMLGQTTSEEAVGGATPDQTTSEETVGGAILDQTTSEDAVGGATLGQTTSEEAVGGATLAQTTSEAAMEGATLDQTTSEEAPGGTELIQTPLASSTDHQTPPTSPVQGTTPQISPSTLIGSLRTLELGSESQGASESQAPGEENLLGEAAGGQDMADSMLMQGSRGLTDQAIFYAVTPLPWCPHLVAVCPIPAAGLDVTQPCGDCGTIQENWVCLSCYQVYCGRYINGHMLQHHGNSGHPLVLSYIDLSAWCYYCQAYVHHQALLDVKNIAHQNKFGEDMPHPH

HEK293 [13] = test: Selectivity index, ratio of IC50 for human HDAC1 expressed in HEK293/T17 cells (unknown origin) to human HDAC6 expressed in HEK293/T17 cells; assay type: cell-based
SM1 [14] = test: Antitumor activity against mouse SM1 cells transplanted in C57BL/6 mouse assessed as decrease in tumor burden at 25 mg/kg, ip dosed 5 days per week before starting 15 mg/kg, ip anti-PD1 immune checkpoint blockade therapy; assay type: functional, organism-based; details: time 5.0 day/week
[15] = Half life in PBS by LC-MS/MS analysis; assay type: physicochemical
Mus musculus [16] = test: Immunomodulatory activity in C57BL/6 mouse harboring mouse SM1 cells assessed as reduction in F4/80+ CD206+ pro-tumor M2 macrophages at 25 mg/kg, ip dosed 5 days per week by flow cytometry; assay type: functional, organism-based; details: time 5.0 day/week
HEK293 [17] = test: Selectivity index, ratio of IC50 for human HDAC2 expressed in HEK293/T17 cells (unknown origin) to human HDAC6 expressed in HEK293/T17 cells; assay type: cell-based
Mus musculus [18] = test: Immunomodulatory activity in C57BL/6 mouse harboring mouse SM1 cells assessed as effect on immunosuppressive T-regs at 25 mg/kg, ip dosed 5 days per week before starting 15 mg/kg, ip anti-PD1 immune checkpoint blockade therapy by flow cytometry; assay type: functional, organism-based; details: time 5.0 day/week
SM1 [19] = test: Cytotoxicity in mouse SM1 cells assessed as reduction in cell viability up to 25 uM; assay type: functional, cell-based; details: dose microM <=25
HEK293 [20] = test: Selectivity index, ratio of IC50 for human HDAC3 expressed in HEK293/T17 cells (unknown origin) to human HDAC6 expressed in HEK293/T17 cells; assay type: cell-based

- half-life at 10 µM [1]: 2.95 h
- fraction unbound at 1 h, 10 µM [3]: 0.981
- inhibition [12]: Active
- half-life [15]: > 24 h
Compound: NCc1ccc(NC(=O)N(CCCCO)Cc2ccc(C(=O)NO)cc2)cc1
- Activity (Mus musculus [2]): inactive
- Activity (Mus musculus [4]): Active
- Activity (Mus musculus [5]): inactive
- Activity (Mus musculus [6]): Active
- Activity (Mus musculus [7]): Active
- Activity (Mus musculus [8]): Active
- Ratio IC50 (HEK293 [9]): 1250
- Activity (Mus musculus [10]): inactive
- Activity (Mus musculus [11]): Active
- Ratio IC50 (HEK293 [13]): 293
- TGI (SM1 [14]): Active
- Activity (Mus musculus [16]): Active
- Ratio IC50 (HEK293 [17]): 440
- Activity (Mus musculus [18]): inactive
- Activity (SM1 [19]): inactive
- Ratio IC50 (HEK293 [20]): 880
